Data on ten molecules can be found in patent publication US11123311B2, “Methods of treating mental disorders” (The Regents of the University of California, priority 2016, dated 2021).

One data set concerns PC12 cells. As to the kind of experiment: NGF-induced neurite outgrowth in PC12 cells. The class given is cell-based. The conditions noted are these: TPPU 0.1, 1.0 or 10 μM, 14,15-EET 0.01, 0.1 or 1.0 μM, concentration dependent. As to the method:
PC12 cells (RIKEN Cell Bank, Tsukuba, Japan) were cultured at 37° C., 5% CO2 in Dulbecco's modified Eagle's medium (DMEM), supplemented with 5% heat-inactivated fetal bovine serum (FBS), 10% heat-inactivated horse serum, and 1% penicillin-streptomycin. Medium was changed two to three times a week. PC12 cells were plated onto 24-well tissue culture plates coated with poly-D-lysine/laminin. Cells were plated at relatively low density (0.25×10^4 cells/cm^2) in DMEM medium containing 0.5% FBS, 1% penicillin-streptomycin. Medium containing a minimal level of serum (0.5% FBS) was used as previously reported (58-60). […]. Four days after incubation with NGF (2.5 ng/ml) with or without specified compounds, morphometric analysis was performed on digitized images of live cells taken under phase-contrast illumination, with an inverted microscope linked to a camera. Images of three fields per well were taken, with an average of 100 cells per field. Differentiated cells were counted by visual examination of the field; only cells that had at least one neurite with a length equal to the cell body diameter were counted, and were then expressed as a percentage of the total cells in the field. Counting was performed in a blinded manner.

The subject of the next data set is neuronal cell cultures. The conditions noted are these: literature (34); cited from earlier work.
Another data set has as its system astrocyte. The following applies: literature (54); cited from earlier work.
For data set [1], the target named is T1, sEH (Homo sapiens (Human), UniProt P34913). As to the kind of experiment: inhibition of sEH (standard assays). The class given is biochemical. The source says:
Any of a number of standard assays for determining epoxide hydrolase activity can be used to determine inhibition of sEH. […] Suitable in vitro assays are described in Zeldin et al., J Biol. Chem. 268:6402-6407 (1993). Suitable in vivo assays are described in Zeldin et al., Arch Biochem Biophys 330:87-96 (1996).
The enzyme also can be detected based on the binding of specific ligands to the catalytic site which either immobilize the enzyme or label it with a probe such as dansyl, fluoracein, luciferase, green fluorescent protein or other reagent. The enzyme can be assayed by its hydration of EETs, its hydrolysis of an epoxide to give a colored product as described by Dietze et al., 1994, supra, or its hydrolysis of a radioactive surrogate substrate (Borhan et al., 1995, supra). The enzyme also can be detected based on the generation of fluorescent products following the hydrolysis of the epoxide. Numerous methods of epoxide hydrolase detection have been described (see, e.g., Wixtrom, supra).
The assays are normally carried out with a recombinant enzyme following affinity purification. They can be carried out in crude tissue homogenates, cell culture or even in vivo, as known in the art and described in the references cited above.

A further data set is described as follows: experimental logP. The class given is physicochemical. The conditions noted are these: read-out: Exp/ logP.
The target of data set [2] is T1, sEH.
Data set [3] deals with mice after social defeat stress. The conditions noted are these: single dose; literature (37,39); cited from earlier work.
The subject of the next data set is TNF-α. Description: serum TNF-α after LPS administration. The conditions noted are these: TPPU 3.0 mg/kg PO. The class given is in vivo. As to the method: Inflammation model of depression. The procedure of inflammation model of depression was performed as previously reported (36). Behavioral tests were performed 24 hours after a single administration of LPS (0.5 mg/kg). […] Serum sample was collected 90 min after LPS administration, and serum levels of TNF-α were measured using a Ready-SET-Go ELISA kit (eBioscience Inc., San Diego, Calif.), according to manufacturer's instructions. […] Behavioral tests including locomotion (LMT), tail suspension test (TST), and forced swimming test (FST) were performed 1, 3, and 5 hours after administration. […] Behavioral tests including LMT, TST, and FST were performed 24, 26, and 28 hours after administration of LPS.

For data set [4] the following is noted: 3 mg/kg PO; mice.
Another data set in a line: in vivo. The conditions noted are these: mouse, po, 3 mg/kg, 3 mg/kg PO, mice.
In data set [5] the test system is LPS-treated depressed mice. The conditions noted are these: literature (36); cited from earlier work.

T1 sequence (P34913 whole entry): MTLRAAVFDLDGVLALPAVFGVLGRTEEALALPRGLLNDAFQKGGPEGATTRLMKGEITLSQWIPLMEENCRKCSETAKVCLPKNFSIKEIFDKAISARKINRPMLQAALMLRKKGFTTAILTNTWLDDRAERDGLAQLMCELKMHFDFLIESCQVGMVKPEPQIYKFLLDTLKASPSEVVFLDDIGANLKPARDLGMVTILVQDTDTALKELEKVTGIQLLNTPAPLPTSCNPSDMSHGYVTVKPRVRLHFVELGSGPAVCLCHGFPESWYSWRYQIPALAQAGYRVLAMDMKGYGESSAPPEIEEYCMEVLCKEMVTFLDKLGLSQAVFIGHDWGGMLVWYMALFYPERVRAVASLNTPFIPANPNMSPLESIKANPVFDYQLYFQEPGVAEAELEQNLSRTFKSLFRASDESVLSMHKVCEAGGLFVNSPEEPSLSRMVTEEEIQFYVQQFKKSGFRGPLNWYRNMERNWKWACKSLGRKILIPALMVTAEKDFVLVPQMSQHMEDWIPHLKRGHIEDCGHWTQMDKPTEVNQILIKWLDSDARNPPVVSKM

In the case of `CCCCCC1OC1C/C=C\C/C=C\C/C=C\CCCC(=O)O` (stereo not drawn) [14,15-EET], in the data set on PC12 cells, the NGF-induced neurite outgrowth result is given as “potentiated”. Also, the axonal growth entry in the data set on neuronal cell cultures is “enhance axonal growth”. The “production of BDNF” value in the data set on astrocyte was “promote the production of BDNF”.

With `CCCCCCCCCCCCNC(=O)NC12CC3CC(CC(C3)C1)C2` [ADU, N-Adamantyl-N′-dodecyl urea], on sEH [1], the “activity as an inhibitor of sEH” value is listed as “particularly high activity”.

Regarding `O=C(Nc1ccc(OC(F)(F)F)cc1)NC1CCN(C(=O)C2(C(F)(F)F)CC2)CC1` [Compound 28], the logP in “experimental logP” amounted to 4.63.

`CC[C@H](C)C(=O)N1CCC(NC(=O)Nc2ccc(C(F)(F)F)nc2)CC1` [Compound 42]: in the data set “experimental logP”, the logP was 3.22. Also, the “t1/2 (human sEH)” value on sEH [2] was 0.0617 h.

For `CC(C)C(=O)N1CCC(NC(=O)Nc2ccc(OC(F)(F)F)cc2)CC1` [Compound 2389], in “experimental logP”, the logP was 3.37. Besides, the “t1/2 (human sEH)” value on sEH [2] was 0.3 h.

For the molecule `CN[C@@]1(c2ccccc2Cl)CCCCC1=O` [R-ketamine], the “antidepressant effect in the social defeat stress model” value in data set [3] is listed as “rapid antidepressant effect”.

One may read the half-life as the time in which the quantity being followed falls by half. On to `CCC(=O)N1CCC(NC(=O)Nc2ccc(OC(F)(F)F)cc2)CC1` [TPPU], for which, in the data set on TNF-α, the “serum levels of TNF-α in control mice” value is “no effect”. For the same molecule, in data set [4], the “half-life in the blood (plasma)” value was found to be 17.8 h and the “half-life in the cerebral cortex” value amounted to 10.7 h. The same molecule showed a half-life in the data set “in vivo” (half-life in the blood (plasma)) of 17.8 h. This molecule also had a half-life in the data set “in vivo” (half-life in the cerebral cortex) of 10.7 h.

Consider `CNC1(c2ccccc2Cl)CCCCC1=O` (stereo not drawn) [ketamine], for which the “antidepressant effect in the social defeat stress model” value in data set [3] is “rapid antidepressant effect”.

In the case of `Fc1ccc([C@@H]2CCNC[C@H]2COc2ccc3c(c2)OCO3)cc1` [paroxetine], the “effect in the LPS-induced inflammation model of depression” value in [5] is listed as “do not have any effect”.

Consider `COc1ccc(C(CN(C)C)C2(O)CCCCC2)cc1` (stereo not drawn) [venlafaxine], for which the “effect in the LPS-induced inflammation model of depression” value in data set [5] is on record as “do not have any effect”.
